The test system of test [1] is EGR-1. Description: Western blot of EGR-1 expression in TECs. Conditions: TEC. Type of test: cell-based, mouse. The text has this: FIG. 5. GDNF expression in TECs is regulated by CaN-NFAT signaling. a. Immunouorescence images of testis sections immunostained with the stem cell markers DDX4 and Oct4 and DAPI to stain DNA. Testes were harvested from 1-week-old or 4-week-old Euploid or Ts65Dn mice. Quantication of DDX4+ and Oct4+ cells relative to DAPI per high-powered eld (HPF) is shown on the right, ***P<0.0001. Bar=50 μm. Two-way ANOVA test. b. […] Values are mean±s.e.m. n=4. c. Quantication of GDNF levels by ELISA in conditioned media from murine TECs, LuEC and LiEC after 2 ngml-1 FGF-2 treatment in the presence or absence of CsA. Values are mean±s.e.m., n=4. d. H&E-stained cross-sections from testes of age-matched Euploid, Ts65Dn or Ts65Dn mice 5 weeks after implantation with GFP+ TECs isolated from syngeneic wild-type mice (Ts65Dn+GFP+ TECs). Red dotted line encircles mature sperm (yellow arrow) in the lumen of the seminiferous tubules. Immunouorescence images with GFP and DAPI to stain DNA of testis sections from Ts65Dn+GFP+TECs mice. e. Western blot analysis of EGR-1 protein expression in TECs and LuECs untreated or after FGF-2 treatment, expression of constitutively active NFATc1 (caNFATc1) or an empty vector control. Actin was probed as a loading control. f. Quantication of nuclear translocation of EGR1 and NFATc1 in TECs after treatment with conditioned media (CM), 2 ng ml-1 FGF-2±CsA. Values are mean±s.e.m. g. […]
On the technique in general: Immunoblotting shows a protein as a band on a membrane.

In test [2] the test system is EGR-1. Description: EGR-1 expression in DS-iPS EC. Type of test: cell-based, human.
Another test relates to TECs. The experiment in a line: GDNF ELISA in conditioned media from TECs. Type of test: cell-based, mouse. The following applies: for GDNF production in conditioned media of TECs after FGF-2 treatment: wild-type mouse TECs. The protocol:
Testis, lung, or liver ECs were plated (10,000 cells ml^−1) on 12 well dishes coated with 0.1% gelatin and cultured for 24 hours. Conditioned media was harvested at 24 and 48 hours after FGF-2 (2 ng ml^−1, 20 ng ml^−1 and 50 ng ml^−1) treatment and analyzed by ELISA for GDNF (Promega GDNF Emax immunoassay system, #G7621) following the manufacturer's instruction. Statistics was analyzed using Graph Pad Prism. For quantification of Gdnf mRNA, total RNA was isolated from the cells using Direct-zol RNA MiniPrep (Zymo Research) and reverse transcribed using High Capacity cDNA Reverse Transcription Kit (Appliedbiosystems), according to the manufacturer's instructions. All gene expression levels were normalized to GAPDH mRNA levels.
FIG. 2. a. Quantication of GDNF by ELISA in conditioned media from TECs, LuECs and LiECs after treatment with the indicated concentration of FGF-2 for 2 days, n=3. Bar=100 μm. Data are presented as the mean±s.e.m. b. Representative brighteld (BF) and GFP images of 2D cultures of GFP+ SSCs co-cultured with STO cells or TECs plus exogenous GDNF and FGF-2 on days 1 and 8 after seeding. Quantication of stem cell numbers 8 days after co-culture with STO or TECs and the average colony area are shown on the right, n=3. Data are presented as the mean±s.e.m. Bar=100 μm. *P<0.05. c. Images of 2D co-cultures of GFP+Thy1.2+ SSCs with TECs and immunostained with the germ cell marker DDX4. Inset: bar=10 μm. d. The 3D spheroid co-cultures of GFP+Thy-1.2+ SSCs with TECs or LuECs were generated with Matrigel but no exogenous GDNF or FGF-2. GFP+ Spheroid co-cultures were immunostained with DDX4 (red), Oct4 (white) and DAPI (blue) at day 15. Quantication of the average diameter and total number of colonies is shown on the right; n=3. All data are presented as the mean±s.e.m. Bar=50 m, *P<0.05. **P<0.01. e. Representative BF images merged with GFP images of serially passaged GFP+Thy-1.2+ SSCs co-cultured with TECs at the indicated passage number (1st, 2nd, 3rd or 4th) or day (D). […]
In general terms: In an ELISA, binding on a coated surface is turned into a signal by an enzyme label.

The values that follow come from patent US20210386792A1, “A METHOD FOR INCREASING POPULATION OF SPERMATOGONIAL STEM CELLS” (priority 2018, published 2021).

On to fibroblast growth factor-2 [FGF-2], for which the “EGR-1 expression after FGF-2 treatment” value in the test on EGR-1 [1] was “increased EGR-1 expression”. In the test with EGR-1 [2], the “EGR-1 expression after FGF treatment” value is “minimal EGR-1 expression”. Besides, the “GDNF expression in media of Fgfr1−/− TECs after FGF2 treatment” value in the test on TECs (Fgfr1−/− TECs compared to Fgfr1+/+ wild-type TECs) is recorded as “no increase in GDNF expression”. Moreover, the “GDNF production in conditioned media of TECs after FGF-2 treatment” value in the test on TECs was “induced significant levels of GDNF”; with TECs (listed as FGF2), “stimulated significant GDNF production”.
